According to ChEMBL document CHEMBL1140744, “Binding of serotonin and N1-benzenesulfonyltryptamine-related analogs at human 5-HT6 serotonin receptors: receptor modeling studies” (J Med Chem, 2008):

Each compound was assayed against 5-hydroxytryptamine receptor 6 (Homo sapiens, UniProt P50406) (assay: Displacement of [3H]LSD from human 5HT6 receptor expressed in HEK293 cells).
Chain of 5-hydroxytryptamine receptor 6 (P50406 whole entry): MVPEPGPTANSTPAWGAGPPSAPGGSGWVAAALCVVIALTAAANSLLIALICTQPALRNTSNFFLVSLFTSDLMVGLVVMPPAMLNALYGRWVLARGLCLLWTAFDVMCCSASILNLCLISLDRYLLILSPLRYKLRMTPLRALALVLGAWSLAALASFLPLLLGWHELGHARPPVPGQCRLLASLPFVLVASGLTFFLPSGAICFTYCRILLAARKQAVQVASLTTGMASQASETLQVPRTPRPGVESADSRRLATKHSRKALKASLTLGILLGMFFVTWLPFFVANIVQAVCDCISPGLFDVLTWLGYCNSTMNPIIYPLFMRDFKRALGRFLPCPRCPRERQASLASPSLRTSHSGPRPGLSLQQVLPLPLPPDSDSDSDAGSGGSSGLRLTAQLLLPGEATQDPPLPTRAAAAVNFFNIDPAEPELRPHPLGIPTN
Format: cell-based
`CCc1[nH]c2ccc(OC)cc2c1C[C@H]1CCCN1C` was tested, and the Ki was 1.8 nM.
`CN(C)[C@H]1CCc2c(cccc2NS(=O)(=O)c2ccccc2)C1` showed a Ki of 90 nM.
Compound `CN(C)CCc1cn(Sc2ccccc2)c2ccccc12` has a Ki of 90 nM.
In the case of `CCc1[nH]c2ccc(OC)cc2c1C[C@@H]1CCCN1C`, the Ki is reported as 220 nM.
For `CN(C)[C@@H]1CCc2c(cccc2NS(=O)(=O)c2ccccc2)C1`, the Ki was 49 nM.
